Test results published in PMC11481179, “Development and Application of Reversible and Irreversible Covalent Probes for Human and Mouse Cathepsin‐K Activity Detection, Revealing Nuclear Activity” (Advanced Science, 2024).

Assays:
Jurkat cells = experiment: Cathepsin labeling in intact Jurkat cells that lack mature CTSK, fluorescent SDS-PAGE; format: cell-based, human; conditions: probe 5 µM, up to 24 h
Procedure: To further corroborate the selectivity of GD32, we tested the labeling of Jurkat cells, which lack mature CTSK. Intact cells were incubated with the probe for different durations up to 24 h before they were lysed and analyzed by fluorescent SDS‐PAGE. […] These findings led us to select GD32 as a lead compound for further investigation of CTSK's activity and location in different biological and medical samples. page 8: Figure S7. Cathepsin labeling in intact Jurkat cells that lack mature CTSK. Jurkat cells were treated with GD32 or GB123 (5 µM) in a culture medium for different durations up to 24 h, followed by cell lysis, and fluorescent SDS-PAGE analysis. […] The gel was analyzed by western blot with anti CTSK antibody. While pro-CTSK is detected, indicated by the black arrow, the mature CTSK is not detected. (1 picture or pasted object on this page, not shown here)

CTSK = biological target: T1, CTSK (Homo sapiens, UniProt P43235); experiment: Recombinant cathepsin labeling by ABPs, in-gel fluorescence; format: binding; conditions: ABP 5 µM, 1 h, 37 °C, pH 5.5, CTSK 0.5–280 ng
T1 sequence (P43235 115-329): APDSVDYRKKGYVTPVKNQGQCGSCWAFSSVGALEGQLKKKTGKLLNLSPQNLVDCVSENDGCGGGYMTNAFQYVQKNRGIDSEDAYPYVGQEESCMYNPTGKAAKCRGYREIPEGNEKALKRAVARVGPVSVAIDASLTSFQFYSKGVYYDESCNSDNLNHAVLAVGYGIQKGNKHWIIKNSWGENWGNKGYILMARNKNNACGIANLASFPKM
Procedure: The ABPs were tested for binding to recombinant CTSK compared to the closely related CTSB, CTSL, and CTSS, which are highly abundant and active in most biological samples. Using the in‐gel fluorescent analysis that detects the stable enzyme‐probe complex, active CTSK was labeled with each of the four probes, and significant selectivity was found in three probes GD32, GD37, and GD42 (Figure 1a). […] However, the minimum amount of active CTSK the remaining probes detected was much higher, ranging from 8 to 70 ngs, (Figure 1b).
Figure 1 In vitro evaluation of CTSK targeted compounds. a) Labeling of recombinant cathepsins by ABPs. Recombinant cathepsins were treated with increasing concentrations of ABPs for 1 h. Samples were separated by SDS‐PAGE and scanned for fluorescence by a Typhoon scanner at 635/670 nm. All probes show dose‐dependent binding to the CTSK, and have lower affinity to CTSS except GD36, b) CTSK [0.5–280 ng] was labeled with the indicated ABPs [5 µM]. Incubations were performed for 1 h at 37 °C, at pH 5.5. Samples were analyzed as described in (a). c) Recombinant cathepsins B, K, L, and S [0.5 µM] were first treated with the indicated concentrations of the inhibitor GD30 or vehicle for 1 h followed by incubation with a pan cathepsin probe GB123 [1 µM] for 1 h. Samples were analyzed as described in (a). d) Quantitative analysis of CTSK inhibition by GD30 presented in (d), data represent mean values ± standard error, n = 3. e) IC50 plot of GD30 inhibition of CTSK activity. […]
emission wavelengths of 370 and 460 nm, respectively. Cathepsin concentrations in the assay were 0.4 nM (CTSK) or 5 nM (CTSS, CTSB, and CTSL). […] For irreversible inhibitors, reaction data were fitted to the one-phase association formula in GraphPad Prism 9 software: Y=Y0 + (Plateau-Y0)*(1-exp(-K*X)) where in this case Y0 and Y represent fluorescence signal at times 0 and t, respectively, K represent the observed reaction rate kobs and X the inhibitor concentration. […]
reaction was stopped and samples were analyzed as described above. […]

Structure (SMILES): C#CCNC(=O)[C@H](CC(C)C)N[C@@H](c1ccc(-c2ccc(S(=O)(=O)CCNC(=O)CCCCC[N+]3=C(/C=C/C=C/C=C4/N(C)c5ccc(S(=O)(=O)O)cc5C4(C)C)C(C)(C)c4cc(S(=O)(=O)O)ccc43)cc2)cc1)C(F)(F)F [GD32]
- fluorescent bands after labeling (Jurkat cells): no fluorescent bands were detected
- minimum amount of active CTSK detected (CTSK): 0.5 ng
